Data: publication PMC12472302, “Discovery of a Promising Hydroxyamino-Piperidine HDAC6 Inhibitor via Integrated Virtual Screening and Experimental Validation in Multiple Myeloma” (Pharmaceuticals, 2025)
Read-outs that look alike come from different tables or passages of the source.

Columns and labels:
[1] = tested on: HDAC6; details: cited from earlier work
[2] = tested on: HDAC6; details: cited from earlier work; remark: listed apart in the source
[3] = biological target: T1, HDAC6 human recombinant enzyme (Homo sapiens, UniProt Q9UBN7); test: Fluorogenic HDAC6 inhibition assay (BPS Bioscience kit); type: biochemical; details: mean ± SD, three independent experiments
T1 sequence (Q9UBN7 1-1215): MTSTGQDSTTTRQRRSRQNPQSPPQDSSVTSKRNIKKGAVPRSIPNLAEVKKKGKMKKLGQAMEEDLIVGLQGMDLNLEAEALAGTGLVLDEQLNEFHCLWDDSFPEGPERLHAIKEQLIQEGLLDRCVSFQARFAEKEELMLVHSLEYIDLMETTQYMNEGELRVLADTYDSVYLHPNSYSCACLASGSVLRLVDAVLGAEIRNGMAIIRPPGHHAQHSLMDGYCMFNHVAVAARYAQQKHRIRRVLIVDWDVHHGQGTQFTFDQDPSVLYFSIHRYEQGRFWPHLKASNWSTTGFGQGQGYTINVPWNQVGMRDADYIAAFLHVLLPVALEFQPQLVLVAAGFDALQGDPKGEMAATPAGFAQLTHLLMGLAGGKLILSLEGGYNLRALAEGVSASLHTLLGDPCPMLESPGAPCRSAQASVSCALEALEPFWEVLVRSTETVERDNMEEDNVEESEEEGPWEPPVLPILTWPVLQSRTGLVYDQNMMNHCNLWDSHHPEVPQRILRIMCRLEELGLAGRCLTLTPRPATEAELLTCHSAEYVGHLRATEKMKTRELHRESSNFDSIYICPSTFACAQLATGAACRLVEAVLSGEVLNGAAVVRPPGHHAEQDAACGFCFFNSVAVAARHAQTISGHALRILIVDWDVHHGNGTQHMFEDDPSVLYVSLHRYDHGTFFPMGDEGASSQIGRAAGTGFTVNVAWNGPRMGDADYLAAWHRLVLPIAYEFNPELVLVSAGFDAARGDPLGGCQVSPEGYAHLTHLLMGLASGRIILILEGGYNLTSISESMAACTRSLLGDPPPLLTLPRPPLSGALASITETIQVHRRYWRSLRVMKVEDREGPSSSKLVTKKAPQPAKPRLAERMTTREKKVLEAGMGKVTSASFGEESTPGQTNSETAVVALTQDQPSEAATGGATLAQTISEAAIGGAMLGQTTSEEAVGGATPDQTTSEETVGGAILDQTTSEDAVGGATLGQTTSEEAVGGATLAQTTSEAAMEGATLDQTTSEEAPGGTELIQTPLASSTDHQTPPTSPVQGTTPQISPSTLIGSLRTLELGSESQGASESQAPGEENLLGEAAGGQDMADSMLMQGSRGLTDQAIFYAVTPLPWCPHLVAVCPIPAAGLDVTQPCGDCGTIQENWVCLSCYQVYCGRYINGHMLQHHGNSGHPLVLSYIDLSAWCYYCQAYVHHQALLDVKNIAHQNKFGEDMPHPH

[4] = tested on: H929-BZB cells; test: CellTiter-Glo cell viability, H929-BZB; type: cell-based; details: Homo sapiens; H929-BZB (bortezomib-resistant), 72 h, mean ± SD
Description: (§1) The MM cell lines used in this study were: AMO, AMO-BZB, NCI-H929 and NCI-H929-BZB. AMO and AMO-BZB cells were provided by Dr. C. Driessen (University of Tubingen, Tübingen, Germany). The NCI-H929 cell line was purchased from DSMZ (Braunschweig, Germany). Bortezomib (BZB)-resistant NCI-H929 cells were selected by incubation with increasing concentrations of the drug. Human MM cell lines were cultured in RPMI-1640 medium (Corning, Turin, Italy) supplemented with 10% of heat-inactivated fetal bovine serum (FBS) (Gibco®, Life Technologies, Carlsbad, CA, USA), 100 U/mL of Penicillin and 100 µg/mL of Streptomycin (P/S) (Gibco®, Life Technologies, Carlsbad, CA, USA) and incubated at 37 °C in a 5% CO2 atmosphere. Peripheral blood mononuclear cells (PBMCs) were isolated by Ficoll-hypaque (Lonza Group, Basel, Switzerland) from healthy donors, following informed consent and Institutional Review Board (University of Catanzaro, Catanzaro, Italy) approval (institutional approval: n.266/2021). […]
(§2) Cell viability was assessed using the CellTiter-Glo (CTG) assay kit (Promega, Madison, WI, USA), as reported. […] Luminescence was measured using the GloMax-Multi Detection System (Promega, Madison, WI, USA).

[5] = tested on: acetylated α-tubulin; test: Western blot of acetylated α-tubulin in MM cell lines; type: cell-based, human; details: AMO and AMO-BZB
Description: (§3) Total protein extracts were prepared using NP-40 Cell Lysis Buffer supplemented with Halt™ Protease Inhibitor Cocktail (Thermo Fisher Scientific, Waltham, MA, USA), as reported.
(§4) Protein samples (30 µg per lane) were resolved on 10% SDS-PAGE gels and subsequently transferred onto nitrocellulose membranes using the Trans-Blot Turbo Transfer System (Bio-Rad Laboratories, Hercules, CA, USA). Membranes were then blocked and incubated with the following primary antibodies: acetylated-α Tubulin (#sc-23950; Santa Cruz Biotechnology, Dallas, TX, USA), acetylated-histone H4 (#sc-34263; Santa Cruz Biotechnology) or histone H4 (#AB5823; abcam). GAPDH (MA5-15738; Thermo Fisher Scientific, Waltham, MA, USA) was used as loading control. Protein bands were visualized using the Clarity Western ECL Substrate (Bio-Rad Laboratories, Hercules, CA, USA), and chemiluminescence signals were quantified using the UVITEC Imaging System (Cleaver Scientific, Warwickshire, UK).

[6] = tested on: H929 cells; test: CellTiter-Glo cell viability, H929; type: cell-based; details: Homo sapiens, NCI-H929; H929, 72 h, mean ± SD
Description: as §1, §2

[7] = tested on: AMO-BZB cells; test: CellTiter-Glo cell viability, AMO-BZB; type: cell-based; details: Homo sapiens; AMO-BZB (bortezomib-resistant), 72 h, mean ± SD
Description: as §1, §2

[8] = tested on: histone H4 acetylation; test: Western blot of acetylated histone H4 in AMO cells; type: cell-based, human; details: 72 h
Description: as §3, §4

[9] = tested on: healthy peripheral blood mononuclear cells (PBMCs); test: CellTiter-Glo cell viability, healthy PBMCs; type: cell-based; details: 72 h
Description: as §1, §2

[10] = tested on: 293T cells; test: CellTiter-Glo cell viability, 293T; type: cell-based; details: 72 h
[11] = tested on: AMO cells; test: CellTiter-Glo cell viability, AMO; type: cell-based; details: Homo sapiens, 72 h, mean ± SD
Description: as §1, §2

[12] = Table S1, ref DOI 10.1039/D2RA01753A

For `Nc1n[nH]c(-c2cc(Cc3ccc(C(=O)NO)cc3)ccc2NC(=O)Cc2ccc3c(c2)OCO3)n1`, the IC50 [1, 12] is listed as 0.1 nM.

For `O=C(CCCCCCC[C@H]1C(=O)[C@H]2CCC(=O)N2Cc2ccccc21)NO`, the IC50 [1] is given as 21.4 nM.

For `CN(C)c1ccc(C(=O)N2CCC(n3cc(C(=O)NCCCCCC(=O)NO)nn3)CC2)cc1`, the IC50 [1] is listed as 11.5 nM.

In the case of `O=C(CCCCCNC(=O)c1cn(C2CCN(S(=O)(=O)c3ccc4ccccc4c3)CC2)nn1)NO`, the IC50 [1] is listed as 8.6 nM.

For `O=C(CCCCCNC(=O)c1cn(Cc2ccc(NS(=O)(=O)c3ccc(Br)cc3)cc2)nn1)NO`, the IC50 [1] is given as 8.4 nM.

For `COc1ccc(-c2ncc(C(=O)NCCCCCC(=O)NO)s2)c(OC)c1`, the IC50 [1] is given as 31 nM.

In the case of `COc1ccc(C(=O)NC2CCN(C(=O)Nc3ccc(/C=C/C(=O)NO)cc3)CC2)cc1`, the IC50 [1] is listed as 12.3 nM.

For `C=CCC.CC[C@@H]1NC(=O)CN(Cc2ccc(C(=O)NO)cc2)C1=O`, the IC50 [1] is listed as 0.73 nM.

In the case of `O=C(NO)c1ccc(CN2CC(=O)N(Cc3ccccc3)[C@H](Cc3ccccc3)C2=O)cc1`, the IC50 [1] is given as 9.83 nM.

In the case of `O=C(NO)c1ccc(CN2C(=O)[C@@H](Cc3ccccc3)N(Cc3cccnc3)C2=O)cc1`, the IC50 [1] is listed as 2.1 nM.

For `O=C(NO)c1ccc(CN2c3ccccc3Sc3cccnc32)cc1`, the IC50 ([1]; Table S1, ref PMID 30645113) is listed as 5 nM.

In the case of `NCc1ccc(NC(=O)N(CCCCO)Cc2ccc(C(=O)NO)cc2)cc1`, the IC50 ([1]; Table S1, ref PMID 32815366) is listed as 0.4 nM.

In the case of `O=C(NO)c1ccc(CN(Cc2nnnn2Cc2ccccc2)C(=O)c2ccccc2C(F)(F)F)cc1`, the IC50 ([1]; Table S1, ref PMID 32803970) is given as 30 nM.

In the case of `CCCON(Cc1ccc(C(=O)NO)cc1)C(=O)Nc1cc(C)cc(C)c1`, the IC50 [1] is given as 14 nM.

For `O=C(NO)c1ccc(CN(Cc2cccnc2)S(=O)(=O)c2cc(F)c(F)c(F)c2F)cc1`, the IC50 ([1]; Table S1, ref PMID 33576627) is listed as 2.1 nM.

For `O=C(NO)c1ccc(COC(=O)N2CCC3(CC2)CN(Cc2ccccc2)c2ccccc23)cc1`, the IC50 [1] is given as 48.5 nM.

For `CCN(CC)Cc1ccc(Cn2c(=O)c(OCc3ccc(C(=O)NO)cc3)c(-c3ccccc3)c3ccccc32)cc1`, the IC50 ([1]; Table S1, ref PMID 33199154) is given as 6.9 nM.

For `Nc1nc2c3ccc(Cc4ccc(C(=O)NO)cc4)cc3nc(Cc3ccc4c(c3)OCO4)n2n1`, the IC50 [1, 12] is given as 0.5 nM.

In the case of `O=C(NO)c1ccc(Cn2c(=O)n(CCc3ccccc3)c(=O)c3ccccc32)cc1`, the IC50 [1] is listed as 4 nM.

In the case of `O=C(NO)c1ccc(N2C(=O)/C(=C3\Nc4ccccc4\C3=N/O)c3ccccc32)cc1`, the IC50 ([1]; Table S1, ref PMID 32916298) is given as 7 nM.

For `O=C(Cc1cccc2ccccc12)C[C@@H](Cc1ccccc1)C(=O)NO`, the IC50 [1] is listed as 88 nM.

In the case of `O=C(CCCCCCNC(=O)c1cnc(N(c2ccccc2)c2ccccc2Cl)nc1)NO` [ACY-241], the selectivity ratio [2] is given as ~10.

With `CC(C)Oc1ccc(-c2csc(NC(=O)c3ncn[nH]3)n2)cc1` [Compound 9] the IC50 [3] was > 25000 nM.

In the case of `O=C(CCC=C1CCN(C(=O)OCc2ccccc2)CC1)NO` [Compound 10, benzyl 4-[4-(hydroxyamino)-4-oxobutylidene]piperidine-1-carboxylate], the IC50 [4] is reported as 30400 nM, the “acetylated α-tubulin levels” value ([5]; 72 h after treatment) is reported as “marked increase” and the IC50 [6] is reported as 18000 nM. For the same compound, the IC50 [3] was 1690 ± 420 nM, the IC50 [7] was 48600 nM and the “impact on histone H4 acetylation” value [8] was “moderate”. For the same compound, the “effect on viability of healthy PBMCs” value [9] was “negligible effects”, the “effect on viability of non-transformed cells” value [10] was “negligible effects” and the IC50 [11] was 13200 nM.

In the case of `COC(=O)c1ccc2ccccc2c1OCCCCCCCC(=O)NO` [ONC(=O)CCCCCCCOc1c(C(=O)OC)ccc(c12)cccc2], the IC50 ([1]; Table S1, ref PMID 31223439) is given as 95 nM.

In the case of `O=C(NO)c1ccc(CNc2ncnc3[nH]ccc23)cc1` [ONC(=O)c1ccc(cc1)CNc2ncnc(c23)[nH]cc3], the IC50 [1] is listed as 10 nM.

With ACY-1215 the “acetylated α-tubulin levels” value ([5]; 48 h after treatment) was “marked increase”.
